Reference: publication PMC10786919, “Design-rules for stapled peptides with in vivo activity and their application to Mdm2/X antagonists” (Nature Communications, 2024)
Values after ≈ are worked out from the molar mass of the structure shown. Where two headings read alike, the source gives them in different places. Positions of bridges follow the written chain, without caps; N, C: chain ends. Non-standard residues stand in square brackets, D forms with d. Residues, ends and D or L forms follow the SMILES beside them. Lys(N3) = [N-]=[N+]=NCCCC[C@H](N)C(=O)O; R8 = C=CCCCCCC[C@@](C)(N)C(=O)O; Cba = N[C@@H](CC1CCC1)C(=O)O; S5 = C=CCCC[C@](C)(N)C(=O)O; βAla = NCCC(=O)O

How the values were obtained:
[1] = Lactate dehydrogenase (LDH) release assay; type: cell-based
Summary of the method: (§1)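 Geometric means of at least three independent biological runs are given for LDH release measured in HCT116 cells stably expressing a p53-driven β-lactamase reporter. Plating density was 8000 cells/well; DMSO in wells was 0.5%.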

[2] = Solubility assay (kinetic solubility, PBS pH 7); type: physicochemical; conditions: for solubility kinetic: read-out: Solubility
Summary of the method: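 Quantitation uses an external standard at 100 µM, prepared from 10 mM stock in acetonitrile:methanol:DMSO (10:80:10). Solubility (µM) = (peak area of sample ÷ peak area of standard) × standard concentration.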

[3] = in vitro
Summary of the method: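 Azido-peptide permeability was read as loss of NanoBRET signal (donor 450 nm, acceptor 610 nm) after adding NanoBret618-azide at 10 μM final.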

[4] = physchem
[5] = Experimental LogD (partition coefficient); conditions: not stated, Partition Coeff LogD
[6] = test system: HCT116 cells; assay: Lactate dehydrogenase (LDH) release assay; type: cell-based
Summary of the method: as §1

[7] = pH 7, aqueous buffer, kinetic from dmso stock, pH 7, PBS
[8] = Nanoclick permeability assay EC50
[9] = 0% FBS 4Hr, read-out: LDH: Cytotoxicity assay EC50
[10] = 10% FBS 4Hr, read-out: LDH: Cytotoxicity assay EC50

Row | Structure (SMILES) | EC50 ([1]; LDH: Cytotoxicity assay EC50) | solubility kinetic [2, 7] | cell entry EC50 [3, 8] | EPSA [4] | logD [5] | EC50 [1, 9] | EC50 [1, 10] | LDH: Cytotoxicity assay % Effect ([6]; 0% FBS 4Hr) | LDH: Cytotoxicity assay % Effect ([6]; 0% FBS 16Hr) | LDH: Cytotoxicity assay % Effect ([6]; 10% FBS 4Hr) | Solubility [2] | Solubility ([2]; pH 7, PBS) | solubility kinetic [2] | cell entry EC50 [3] | LDH: Cytotoxicity assay % Effect [6]
1 | CC(=O)N[C@@H](CCCCN=[N+]=[N-])C(=O)NCCC(=O)N[C@@H](Cc1ccc(O)cc1)C(=O)N[C@H](C(=O)N[C@@H](Cc1ccccc1)C(=O)N[C@]1(C)CCCCCCC=CCCC[C@@](C)(C(=O)N[C@@H](CO)C(=O)N[C@@H](C)C(=O)N[C@@H](C)C(N)=O)NC(=O)[C@H](CC2CCC2)NC(=O)[C@H](Cc2c[nH]c3ccccc23)NC(=O)[C@H](C)NC(=O)[C@H](Cc2c[nH]c3ccccc23)NC(=O)[C@H](Cc2ccc(O)cc2)NC(=O)[C@H](Cc2c[nH]c3ccccc23)NC1=O)[C@@H](C)O [MP-540] (Ac-[Lys(N3)][βAla]YTF[R8]WYWAW[Cba][S5]SAA-NH2; staple 6-13) | > 50.6 µM | 2 µM (≈ 4.27 µg/mL) | 94.2 nM | 253 A^2 | 3.67 | – | – | – | – | – | – | – | – | – | –
2 | CC(=O)N[C@@H](CCCCN=[N+]=[N-])C(=O)NCCC(=O)N[C@@H](CC(C)C)C(=O)N[C@H](C(=O)N[C@@H](Cc1ccccc1)C(=O)N[C@]1(C)CCCCCCC=CCCC[C@@](C)(C(=O)N[C@@H](CO)C(=O)N[C@@H](C)C(=O)N[C@@H](C)C(N)=O)NC(=O)[C@H](CC2CCC2)NC(=O)[C@H](C)NC(=O)[C@H](C)NC(=O)[C@H](Cc2c[nH]c3ccccc23)NC(=O)[C@H](Cc2ccc(O)cc2)NC(=O)[C@H](C)NC1=O)[C@@H](C)O [MP-964, AZIDE-ATSP-7041 (E5A,Q9A)] (Ac-[Lys(N3)][βAla]LTF[R8]AYWAA[Cba][S5]SAA-NH2; staple 6-13) | – | – | – | 204 A^2 | 3.77 | > 50 µM | > 50 µM | 6.293% | 4.09% | 2.881% | P.B. | Poorly Behaved | – | – | –
3 | CC(=O)N[C@@H](CCCCN=[N+]=[N-])C(=O)NCCC(=O)N[C@@H](CC(C)C)C(=O)N[C@H](C(=O)N[C@@H](Cc1ccccc1)C(=O)N[C@]1(C)CCCCCCC=CCCC[C@@](C)(C(=O)NC(C)(C)C(=O)N[C@@H](C)C(=O)N[C@@H](C)C(N)=O)NC(=O)[C@H](CC2CCC2)NC(=O)[C@H](CCC(N)=O)NC(=O)[C@H](C)NC(=O)[C@H](Cc2c[nH]c3ccccc23)NC(=O)[C@H](Cc2ccc(O)cc2)NC(=O)[C@H](CCC(=O)O)NC1=O)[C@@H](C)O [MP-172] | – | 140 µM (≈ 276 µg/mL) | 123 nM | 225 A^2 | 3.17 | – | – | – | – | – | – | – | – | – | –
4 | CC(=O)N[C@@H](CCCCN=[N+]=[N-])C(=O)NCCC(=O)NC(C)(C)C(=O)N[C@H](C(=O)N[C@@H](Cc1ccccc1)C(=O)N[C@]1(C)CCCCCCC=CCCC[C@@](C)(C(=O)N[C@@H](CO)C(=O)N[C@@H](C)C(=O)N[C@@H](C)C(N)=O)NC(=O)[C@H](CC2CCC2)NC(=O)[C@H](CCC(N)=O)NC(=O)[C@H](C)NC(=O)[C@H](Cc2c[nH]c3ccccc23)NC(=O)[C@H](Cc2ccc(O)cc2)NC(=O)[C@H](CCC(=O)O)NC1=O)[C@@H](C)O [MP-168] | – | 79.5 µM (≈ 154 µg/mL) | – | 228 A^2 | 2.81 | > 50 µM | – | 4.017% | 11.59% | – | – | – | – | – | –
5 | CC(=O)N[C@@H](CC(C)C)C(=O)N[C@H](C(=O)N[C@@H](Cc1ccccc1)C(=O)N[C@]1(C)CCCCCCC=CCCC[C@@](C)(C(=O)N[C@@H](Cc2c[nH]cn2)C(=O)N[C@@H](C)C(=O)N[C@@H](C)C(N)=O)NC(=O)[C@H](CC2CCC2)NC(=O)[C@H](CC(C)C)NC(=O)[C@H](CCC(N)=O)NC(=O)[C@H](Cc2c[nH]c3ccccc23)NC(=O)[C@H](Cc2ccc(O)cc2)NC(=O)[C@H](CCC(=O)O)NC1=O)[C@@H](C)O [MP-201, ATSP-7041 (S12H)] (Ac-LTF[R8]EYWQL[Cba][S5]HAA-NH2; staple 4-11) | – | 5 µM (≈ 9.19 µg/mL) | – | 218 A^2 | 2.64 | > 50 µM | – | 10.92% | 6.91% | – | – | – | – | – | –
6 | CC(=O)N[C@@H](CC(C)C)C(=O)N[C@H](C(=O)N[C@@H](Cc1ccccc1)C(=O)N[C@]1(C)CCCCCCC=CCCC[C@@](C)(C(=O)N[C@@H](CO)C(=O)N[C@@H](C)C(=O)N[C@@H](C)C(N)=O)NC(=O)[C@H](CC2CCC2)NC(=O)[C@H](CC(C)C)NC(=O)[C@H](CCC(N)=O)NC(=O)[C@H](Cc2c[nH]c3ccccc23)NC(=O)[C@H](Cc2ccc(O)cc2)NC(=O)[C@H](Cc2c[nH]cn2)NC1=O)[C@@H](C)O [MP-199, ATSP-7041 (E5H)] (Ac-LTF[R8]HYWQL[Cba][S5]SAA-NH2; staple 4-11) | – | 5 µM (≈ 8.98 µg/mL) | – | 201 A^2 | 3.25 | > 50 µM | – | 4.035% | 24.3% | – | – | – | – | – | –
7 | CC(=O)N[C@@H](CC(C)C)C(=O)N[C@@H](Cc1c[nH]cn1)C(=O)N[C@@H](Cc1ccccc1)C(=O)N[C@]1(C)CCCCCCC=CCCC[C@@](C)(C(=O)N[C@@H](CO)C(=O)N[C@@H](C)C(=O)N[C@@H](C)C(N)=O)NC(=O)[C@H](CC2CCC2)NC(=O)[C@H](CC(C)C)NC(=O)[C@H](CCC(N)=O)NC(=O)[C@H](Cc2c[nH]c3ccccc23)NC(=O)[C@H](Cc2ccc(O)cc2)NC(=O)[C@H](CCC(=O)O)NC1=O [MP-198, ATSP-7041 (T2H)] (Ac-LHF[R8]EYWQL[Cba][S5]SAA-NH2; staple 4-11) | – | 25 µM (≈ 45.6 µg/mL) | – | 209 A^2 | 2.81 | > 50 µM | – | 2.825% | -3.86% | – | – | – | – | – | –
8 | CC(=O)N[C@@H](CCCCN=[N+]=[N-])C(=O)NCCC(=O)N[C@@H](CC(C)C)C(=O)N[C@H](C(=O)N[C@@H](Cc1ccccc1)C(=O)N[C@]1(C)CCCCCCC=CCCC[C@@](C)(C(=O)N[C@@H](C)C(=O)N[C@@H](C)C(=O)N[C@@H](C)C(N)=O)NC(=O)[C@H](CC2CCC2)NC(=O)[C@H](CCC(N)=O)NC(=O)[C@H](C)NC(=O)[C@H](Cc2c[nH]c3ccccc23)NC(=O)[C@H](Cc2ccc(O)cc2)NC(=O)[C@H](CCC(=O)O)NC1=O)[C@@H](C)O [MP-8956, AZIDE-ATSP-7041 (S12A)] (Ac-[Lys(N3)][βAla]LTF[R8]EYWAQ[Cba][S5]AAA-NH2; staple 6-13) | – | 108 µM (≈ 211 µg/mL) | – | 217 A^2 | – | > 50 µM | > 50 µM | 18.05% | – | 3.25% | – | – | 108 µM (≈ 211 µg/mL) | 411 nM | –
9 | CC(=O)N[C@@H](CC(C)C)C(=O)N[C@H](C(=O)N[C@@H](Cc1ccccc1)C(=O)N[C@]1(C)CCCCCCC=CCCC[C@@](C)(C(=O)N[C@@H](CO)C(=O)N[C@@H](C)C(=O)N[C@@H](C)C(N)=O)NC(=O)[C@H](CC2CCC2)NC(=O)[C@H](CC(C)C)NC(=O)[C@H](CCCNC(=N)N)NC(=O)[C@H](Cc2c[nH]c3ccccc23)NC(=O)[C@H](Cc2ccc(O)cc2)NC(=O)[C@H](CCC(=O)O)NC1=O)[C@@H](C)O [MP-194] (Ac-LTF[R8]EYWRL[Cba][S5]SAA-NH2; staple 4-11) | > 50 µM | – | – | 210 A^2 | 2.87 | – | – | – | – | – | – | Poorly Behaved | – | – | -1.06%
10 | CC(=O)N[C@@H](CC(C)C)C(=O)N[C@H](C(=O)N[C@@H](Cc1ccccc1)C(=O)N[C@]1(C)CCCCCCC=CCCC[C@@](C)(C(=O)N[C@@H](CO)C(=O)N[C@@H](C)C(=O)N[C@@H](C)C(N)=O)NC(=O)[C@H](CC2CCC2)NC(=O)[C@H](CC(C)C)NC(=O)[C@H](CCC(N)=O)NC(=O)[C@H](Cc2c[nH]c3ccccc23)NC(=O)[C@H](Cc2ccc(O)cc2)NC(=O)[C@H](CCCNC(=N)N)NC1=O)[C@@H](C)O [MP-193] (Ac-LTF[R8]RYWQL[Cba][S5]SAA-NH2; staple 4-11) | > 50 µM | 2 µM (≈ 3.63 µg/mL) | – | 207 A^2 | 3.26 | – | – | – | – | – | – | – | – | – | 58.33%
11 | CC(=O)N[C@@H](CC(C)C)C(=O)N[C@H](C(=O)N[C@@H](Cc1ccccc1)C(=O)N[C@]1(C)CCCCCCC=CCCC[C@@](C)(C(=O)N[C@@H](CCCNC(=N)N)C(=O)N[C@@H](C)C(=O)N[C@@H](C)C(N)=O)NC(=O)[C@H](CC2CCC2)NC(=O)[C@H](CC(C)C)NC(=O)[C@H](CCC(N)=O)NC(=O)[C@H](Cc2c[nH]c3ccccc23)NC(=O)[C@H](Cc2ccc(O)cc2)NC(=O)[C@H](CCC(=O)O)NC1=O)[C@@H](C)O [MP-196] (Ac-LTF[R8]EYWQL[Cba][S5]RAA-NH2; staple 4-11) | > 50 µM | 3 µM (≈ 5.57 µg/mL) | – | 214 A^2 | 2.77 | – | – | – | – | – | – | – | – | – | –
12 | CC(=O)N[C@@H](C)C(=O)N[C@@H](C)C(=O)N[C@@H](Cc1ccccc1)C(=O)N[C@]1(C)CCCCCCC=CCCC[C@@](C)(C(=O)N[C@@H](CO)C(=O)N[C@@H](C)C(=O)N[C@@H](C)C(N)=O)NC(=O)[C@H](CC2CCC2)NC(=O)[C@H](C)NC(=O)[C@H](C)NC(=O)[C@H](Cc2c[nH]c3ccccc23)NC(=O)[C@H](Cc2ccc(O)cc2)NC(=O)[C@H](CCC(=O)O)NC1=O [MP-1207] (Ac-AAF[R8]EYWAA[Cba][S5]SAA-NH2; staple 4-11) | > 50 µM | 171 µM (≈ 276 µg/mL) | – | 224 A^2 | 2.91 | – | – | – | – | – | – | – | – | – | –
